Marks after values point to notes of the source that are not given here.
How the values were obtained:
male Fischer 344 rats [1] = test: Six-hour urine protein content after a single i.p. dose; type: in vivo; conditions: i.p. in corn oil, mean ± SE, N = 3–4
male Fischer 344 rats [2] = test: Liver weight 24 h after a single i.p. dose; type: in vivo; conditions: i.p. in corn oil, mean ± SE, N = 3–4
male Fischer 344 rats [3] = test: Serum alanine aminotransferase; type: in vivo; conditions: 24 h
male Fischer 344 rats [4] = test: Clinical observation 24 h after dosing; type: in vivo, rat; conditions: 0.6 mmol/kg i.p., 24 h after dosing (sluggish movements and low body temperatures)
male Fischer 344 rats [5] = test: Kidney weight 24 h after a single i.p. dose; type: in vivo; conditions: i.p. in corn oil, mean ± SE, N = 3–4
male Fischer 344 rats [6] = test: Blood urea nitrogen; type: in vivo; conditions: for Blood urea nitrogen: i.p. in corn oil, 24 h, mean ± SE, N = 3–4
male Fischer 344 rats [7] = test: Urine volume after a single i.p. dose; type: in vivo; conditions: i.p. in corn oil, mean ± SE, N = 3–4
male Fischer 344 rats [8] = test: Kidney histology; type: in vivo; conditions: all doses evaluated, i.p., 24 h, vs corn oil
male Fischer 344 rats [9] = test: Liver histology; type: in vivo; conditions: 24 h
[10] = dose 0.2 (head mg/kg; text mmol/kg)
[11] = dose 0.4 (head mg/kg; text mmol/kg)
[12] = dose 0.6 (head mg/kg; text mmol/kg)

Structure (SMILES): O=C(O)CSC(=O)Nc1cc(Cl)cc(Cl)c1 [DCTA, [[[(3,5-dichlorophenyl)amino]carbonyl]thio]acetic acid]
- Six-hour urine protein content (male Fischer 344 rats [1]; [10]): 2.9 ± 0.9^b mg
- Six-hour urine protein content (male Fischer 344 rats [1]; [11]): 2.5 ± 0.4^b mg
- Six-hour urine protein content (male Fischer 344 rats [1]; [12]): 2.5 ± 1.1^b mg
- Liver weight (male Fischer 344 rats [2]; [10]): 3.58 ± 0.21^b g/100% BW
- Liver weight (male Fischer 344 rats [2]; [11]): 3.62 ± 0.05^b g/100% BW
- Liver weight (male Fischer 344 rats [2]; [12]): 3.46 ± 0.17^b g/100% BW
- ALT elevation compared to corn oil controls (male Fischer 344 rats [3]; 0.6 mmol/kg i.p.): about 2 fold
- Change in serum ALT levels (male Fischer 344 rats [3]; 0.2 and 0.4 mmol/kg i.p.): no changes were noted
- Clinical appearance (male Fischer 344 rats [4]): appeared to be moribund
- Kidney weight (male Fischer 344 rats [5]; [10]): 0.40 ± 0.01^b g/ 100% BW
- Kidney weight (male Fischer 344 rats [5]; [11]): 0.43 ± 0.01 *,^b,^c g/ 100% BW
- Kidney weight (male Fischer 344 rats [5]; [12]): 0.45 ± 0.01 *,^c g/ 100% BW
- Increase in serum BUN concentrations (male Fischer 344 rats [6]; 0.4 and 0.6 mmol/kg, compared to corn oil and the 0.2 mmol/kg dose): about 3 fold
- Blood urea nitrogen (male Fischer 344 rats [6]; [10]): 21.0 ± 1.0^b mg/dl
- Blood urea nitrogen (male Fischer 344 rats [6]; [11]): 62.2 ± 11.2*,^c mg/dl
- Blood urea nitrogen (male Fischer 344 rats [6]; [12]): 67.8 ± 17.9*,^c mg/dl
- Twenty-four-hour urine volume (male Fischer 344 rats [7]; [10]): 12.5 ± 3.8^b ml
- Twenty-four-hour urine volume (male Fischer 344 rats [7]; [11]): 13.1 ± 2.4^b ml
- Twenty-four-hour urine volume (male Fischer 344 rats [7]; [12]): 9.5 ± 5.0^b ml
- Kidney morphology (male Fischer 344 rats [8]): did not exhibit obvious changes in kidney morphology
- Liver morphology (male Fischer 344 rats [9]; 0.6 mmol/kg i.p.): nuclear condensation was apparent in some hepatocytes
- Liver morphology (male Fischer 344 rats [9]; 0.2 and 0.4 mmol/kg i.p.): did not produce any significant changes

— article PMC3175016 (Journal of applied toxicology : JAT, 2011)
